The term solubility (kinetic) denotes the concentration staying in solution when a stock, usually in DMSO, is diluted into the medium.

SMILES strings stand for the structures. Converted amounts (≈) assume the structure as drawn.

The conditions of this data set: buffer; pH 7.4; 200.0 µM.
The compound `NC(=O)C1CCN(S(=O)(=O)c2ccccc2[N+](=O)[O-])CC1` showed a kinetic solubility of 39.8 µg/mL (≈ 127 µM).
Take `O=C(Nc1ccc(Cl)cc1)N1CCN(c2ncccn2)CC1`: the kinetic solubility came out at 44.4 µg/mL (≈ 140 µM).
Turning to `Cc1ccc(NS(=O)(=O)c2ccc(NC(=O)c3ccccc3C(=O)O)cc2)c(C)c1`, the solubility (kinetic) was greater than 63.7 µg/mL.
For `Cc1ccc(N2C(=O)C3CCCN3C2=S)c(C)c1` (stereo not drawn) the value was greater than 39.1 µg/mL; for `COc1ccc2c(c1)c1ncn(CC3CCCO3)c(=O)c1n2C` (stereo not drawn), 38.6 µg/mL (≈ 123 µM).
For `O=C(CNCc1ccc(F)cc1)Nc1cc(S(=O)(=O)N2CCOCC2)ccc1Cl`, the kinetic solubility came out at 8.4 µg/mL (≈ 19 µM).
The figure for `O=C(CN1C(=O)NC2(CCCc3ccccc32)C1=O)c1ccccc1F` (stereo not drawn) is 10.4 µg/mL (≈ 29.5 µM); for `CN=C(N)NC(=O)Nc1c(C)cccc1C.Cl` it is greater than 38.5 µg/mL.
Compound `CCC1(CC)NC(=O)N(CC(=O)Nc2ccc(OCc3ccccc3)cc2)C1=O` came in with a kinetic solubility of 8.9 µg/mL (≈ 22.5 µM).
`CN(C)CCCNC(=S)Nc1ccc(-c2ccccc2)cc1` registered a kinetic solubility of 42.8 µg/mL (≈ 137 µM).
The figure for `CCCc1nnc(SCC(=O)Nc2cc(C)on2)n1CCOC` is greater than 50.9 µg/mL.
For `O=C(NCCCn1ccnc1)/C(=C/c1ccco1)NC(=O)c1ccco1` the value was greater than 53.2 µg/mL; for `O=C1CCCC(=O)N1c1ccc(N2CCOCC2)c([N+](=O)[O-])c1`, greater than 47.9 µg/mL.
For `COc1ccc(/C=C/C(=O)NCCCN2CCCC2)cc1`, the solubility (kinetic) was greater than 43.3 µg/mL.
For `COC(=O)c1cccc(NC(=S)N2CCN(C)CC2)c1` the value was 41.9 µg/mL (≈ 143 µM); for `COc1ccc(NCc2cccnc2)cc1`, 26.8 µg/mL (≈ 125 µM); for `CSc1ccc(S(=O)(=O)N2c3ccccc3CC2C)cc1` (stereo not drawn), 1.7 µg/mL (≈ 5.32 µM).
As to `COc1ccc2nc(-c3ccccc3)cc(C(=O)N3CCC3)c2c1`, the kinetic solubility was greater than 47.8 µg/mL.
Consider `COc1cc(/C=C/C(=O)OCC(=O)Nc2ccc3c(c2)OCO3)ccc1O`, for which the kinetic solubility turned out to be 15.5 µg/mL (≈ 41.7 µM).
For `CN(C)/C=C1\Cc2ccccc2C1=O` the value was greater than 28.1 µg/mL; for `Cn1ccsc1=NC(=O)c1cccc(OC(F)F)c1`, greater than 42.6 µg/mL; for `O=C(NC(=S)Nc1ccc(Br)cc1)C1CCC1`, 2.6 µg/mL (≈ 8.3 µM).
The figure for `CS(=O)(=O)O.OC(CCN1CCCCC1)(c1ccccc1)c1ccccc1` is greater than 58.7 µg/mL; for `S=C(Nc1ccc(Cl)cc1Cl)N1CCCC1` it is 8.6 µg/mL (≈ 31.2 µM); for `COCc1nc2oc3ccc(C)cc3c(=O)c2cc1C(=O)OC` it is 3.9 µg/mL (≈ 12.4 µM).
`O=C(C[n+]1ccccc1)Nc1ccc(Cl)c([N+](=O)[O-])c1.[Cl-]` had a solubility (kinetic) greater than 49.2 µg/mL.
With `COC(=O)c1cc(-c2cccs2)nc2ccccc12`, the kinetic solubility is 9.6 µg/mL (≈ 35.6 µM).
For the compound `N/C(Cc1ccc([N+](=O)[O-])cc1)=N\OC(=O)C1CCCCC1`, the kinetic solubility is 41.2 µg/mL (≈ 135 µM).
`COc1ccc(/C(N)=N/OC(=O)CC2CCCCC2)cc1OC` came in with a solubility (kinetic) of 19.1 µg/mL (≈ 59.6 µM).
The figure for `O=S1(=O)CCN2C=C(Cl)C=C(Cl)C2=N1` is greater than 38 µg/mL; for `O=C(Cc1ccccc1)N1CCN(c2ccc([N+](=O)[O-])cc2)CC1` it is 3.7 µg/mL (≈ 11.4 µM); for `CCOc1ncccc1C(=O)OCC(=O)Nc1cc(C(C)(C)C)ccc1OC` it is 1.5 µg/mL (≈ 3.88 µM).
The figure for `CCCc1nc2ccccc2c(=O)n1CCc1ccccc1` is 1.7 µg/mL (≈ 5.81 µM).
The figure for `Cc1noc(NS(=O)(=O)c2ccc(NC(=O)/C=C/c3ccccc3)cc2)c1C` is greater than 59.6 µg/mL; for `O=C1CC(=O)N(c2ccccc2F)C(=O)N1` it is greater than 33.3 µg/mL; for `O=C(O)c1cccc(Nc2ccncc2[N+](=O)[O-])c1` it is greater than 38.9 µg/mL.
For `O=C(NCC1CCCCC1)c1cccc([N+](=O)[O-])c1`, the kinetic solubility was 20.2 µg/mL (≈ 77 µM).
The figure for `COc1ccccc1C(=O)NCCC(=O)N1CCCC(C)C1` (stereo not drawn) is greater than 45.7 µg/mL; for `CC1CCN(C(=O)COc2cccc3c2CCN(Cc2ccccc2)C3=O)CC1` it is 55.9 µg/mL (≈ 142 µM); for `N#Cc1ccccc1CN1C(=O)c2ccccc2S1(=O)=O` it is 0.8 µg/mL (≈ 2.68 µM).
For `O=c1[nH]c(=S)n(C2CC2)c(O)c1C=NCc1ccc(F)cc1` the value was 0.9 µg/mL (≈ 2.82 µM).
The figure for `CN(Cc1cccs1)C(=O)c1ccc(Cl)c(S(=O)(=O)N2CCCCCC2)c1` is 14.1 µg/mL (≈ 33 µM); for `CC(C)(C)c1ccc(Oc2ccc(NC(=O)c3cccs3)cn2)cc1` it is 1.3 µg/mL (≈ 3.69 µM); for `C#CCOc1ccc(/C=C2/C(=O)ON=C2C)cc1Cl` it is 32.9 µg/mL (≈ 119 µM).
The compound `Cc1ccc(C)c2sc(NC(=O)CN3C(=O)CCC3=O)nc12` displayed a kinetic solubility of 45.5 µg/mL (≈ 143 µM).
The figure for `Cc1ccc(NC(=O)Nc2ccno2)cc1` is greater than 32.6 µg/mL; for `O=C(NC1CC1)c1nc(Cn2cc([N+](=O)[O-])cn2)no1` it is greater than 41.7 µg/mL.
The figure for `Cc1cc(NC(=O)c2cc(C(C)(C)C)oc2C)no1` is 0.9 µg/mL (≈ 3.43 µM); for `Cc1ccc(CNC(=O)Nc2ccccc2)c(C)c1` it is 0.7 µg/mL (≈ 2.75 µM).
The figure for `Cc1cc(C(=O)N2CCC(C(N)=O)CC2)c(C)o1` is greater than 37.5 µg/mL; for `COc1ccc(-n2c(O)c(C(C)=NCC3CCCO3)c(=O)[nH]c2=O)cc1` (stereo not drawn) it is 51.5 µg/mL (≈ 143 µM).
In turn, `CCOC(=O)c1ccc(NC(=S)Nc2cccc(N)n2)cc1` displayed a solubility (kinetic) of 2.3 µg/mL (≈ 7.27 µM).
The figure for `Nc1ccncc1Cl` is 16.3 µg/mL (≈ 127 µM); for `CCCCCCC(=O)N(O)C1CC(=O)N(c2ccc(Cl)cc2)C1=O` (stereo not drawn) it is 43.9 µg/mL (≈ 124 µM).
The figure for `CC(=O)Oc1ccc(-c2ccc(C(=O)OCC(=O)c3c(N)n(C)c(=O)n(C)c3=O)cc2)cc1` is 3.2 µg/mL (≈ 7.09 µM).
For `CC(=O)Nc1cccc(NC(=O)COc2ccccc2C)c1` the value was greater than 44.8 µg/mL.
`CC1=CC(C)(C)NC(=S)N1c1ccc(C)c(C)c1`: the kinetic solubility was found to be 2.1 µg/mL (≈ 8.06 µM).
The figure for `Cc1cccc(Nc2c([N+](=O)[O-])ccc3nonc23)c1C` is less than 0.1 µg/mL; for `Nc1cc(N)nc(SCC(=O)Nc2ccc3c(c2)OCO3)n1` it is 47.2 µg/mL (≈ 148 µM); for `Cc1[nH]c2c(ccc3cccnc32)c1C` it is 19.4 µg/mL (≈ 98.9 µM).
For `O=C(COc1ccc2ccc(=O)oc2c1)NC1CCS(=O)(=O)C1` (stereo not drawn) the value was greater than 50.6 µg/mL; for `COc1ccccc1NC(=O)c1cc(N)cc(C(=O)Nc2ccccc2OC)c1`, 29.5 µg/mL (≈ 75.4 µM).
For `COc1ccccc1CNC(=O)CN1C(=O)NC2(CCOc3ccccc32)C1=O` (stereo not drawn) the value was 7.9 µg/mL (≈ 20 µM); for `O=C(NCCNC(=O)c1ccccn1)c1ccc(-c2ccccc2)cc1`, 3.3 µg/mL (≈ 9.55 µM).
Compound `CN1C(=O)NC(c2ccccc2Cl)C2=C1CC(C)(C)CC2=O` (stereo not drawn) registered a kinetic solubility greater than 47.8 µg/mL.
As for `CCCNC(=O)Nc1nc2ccccc2s1`, the kinetic solubility was 34 µg/mL (≈ 144 µM).
The figure for `CC1(C)CC(=O)C(C(O)c2ccc([N+](=O)[O-])cc2)C(C)(C)N1` (stereo not drawn) is 39.9 µg/mL (≈ 130 µM); for `CCc1ccc(N2CC(C(=O)Nc3cc(C)on3)CC2=O)cc1` (stereo not drawn) it is 26 µg/mL (≈ 83 µM).
The figure for `CN(C)c1ccc(C(=O)OCC(=O)Nc2cccc(S(=O)(=O)N3CCCC3)c2)cc1` is 5.5 µg/mL (≈ 12.7 µM); for `Cc1[nH]c2ccccc2c1C(=O)CSC(=S)N1CCOCC1` it is 2.4 µg/mL (≈ 7.18 µM); for `S=C(NCCc1ccccc1)Nc1ccc(N2CCCCC2)cc1` it is 0.6 µg/mL (≈ 1.77 µM).
In the case of `O=C(Cc1c(Cl)cccc1Cl)Nc1ccncc1`, the kinetic solubility is greater than 42.2 µg/mL.
In turn, `CCOc1ccc(NC(=O)COC(=O)Cc2ccsc2)cc1` registered a kinetic solubility of 25.1 µg/mL (≈ 78.6 µM).
The figure for `CC(C)c1ccc(NC(=O)CCC(=O)NCc2ccco2)cc1` is 5.1 µg/mL (≈ 16.2 µM); for `COC(=O)c1ccc(N=C2SCC(=O)N2C)cc1` it is greater than 39.6 µg/mL; for `CN1CCN(C(=O)CCN2C(=O)/C(=C\c3ccc(F)cc3)SC2=S)CC1` it is 22.3 µg/mL (≈ 56.7 µM).
Turning to `CSCC(=O)Nc1nc(-c2ccc3c(c2)OCCO3)cs1`, the solubility (kinetic) is 5.2 µg/mL (≈ 16.1 µM). Against the preceding compound, the solubility kinetic is about 4.3-fold lower.
The figure for `CC(C)(C)NC(=O)C1CC1(c1ccccc1)c1ccccc1` (stereo not drawn) is 2.8 µg/mL (≈ 9.54 µM); for `O=C(CN1C(=O)c2ccc([N+](=O)[O-])cc2C1=O)NCc1ccc(C(=O)O)cc1` it is greater than 57.5 µg/mL; for `CCOc1ccc(NC(=O)NC2CC(=O)N(c3ccc(OC)cc3)C2)cc1` (stereo not drawn) it is 7.7 µg/mL (≈ 20.8 µM).
The figure for `Cc1ccc(-n2c(C)nc3ccsc3c2=O)cc1` is greater than 38.4 µg/mL; for `Clc1ccc(CNc2ccc(N3CCN(Cc4ccccc4)CC3)cc2)cc1` it is 1 µg/mL (≈ 2.55 µM); for `Cc1ccc(/C=C2\C(=O)NC(=O)N2C)o1` it is 21.4 µg/mL (≈ 104 µM).
As to `CN1CCN(C(=O)c2ccc(Cl)cc2)CC1`, the kinetic solubility was greater than 35.8 µg/mL.
Consider `Cc1c(C(=O)n2cnc3ccccc32)cccc1[N+](=O)[O-]`, for which the kinetic solubility came to 39.8 µg/mL (≈ 142 µM).
In turn, `Cc1ccc(C(C)NC(=S)NC2CCCCC2)cc1C` (stereo not drawn) displayed a solubility (kinetic) of 7.8 µg/mL (≈ 26.9 µM).
For `O=C(COC(=O)c1ccc(F)cc1F)NCc1ccc2c(c1)OCO2` the value was 4.9 µg/mL (≈ 14 µM).
For `NC(=O)CSc1ccc(F)cc1` the value was greater than 27.8 µg/mL; for `O=C(O)CSc1cn(Cc2ccccc2)c2ccccc12`, greater than 44.6 µg/mL; for `O=C(Cc1ccccc1)Nc1ccc(NC(=O)c2ccco2)cc1Cl`, 2.4 µg/mL (≈ 6.76 µM).
Turning to `COc1cccc(NC(=O)COc2ccccc2)c1`, the solubility (kinetic) was greater than 38.6 µg/mL.
`O=C1CSC(c2ccccc2[N+](=O)[O-])N1c1cccc(F)c1` (stereo not drawn) yielded a solubility (kinetic) of 12.9 µg/mL (≈ 40.5 µM).
For `CCOC(=O)/C(C)=C1\NC(C)(C)Cc2ccccc21.I` the value was 18.7 µg/mL; for `CC1CCC(C(C)C)C(OCC(O)CNC(C)C)C1.Cl` (stereo not drawn), greater than 46.2 µg/mL.
On to `Cc1ccc(S(=O)(=O)Nc2ncccn2)cc1`, for which the kinetic solubility is greater than 37.4 µg/mL.
The figure for `Cc1cnc(-n2c(=S)[nH]c3ccccc3c2=O)s1` is greater than 41.3 µg/mL; for `CN(C(=O)CSc1ncnc2ccccc12)C1CCCCC1` it is 45.4 µg/mL (≈ 144 µM).
Compound `CNS(=O)(=O)c1cccc(C(=O)OCC(=O)NC2CCCC2)c1` gave a kinetic solubility greater than 51.1 µg/mL.
The figure for `CCOc1ccc(S(=O)(=O)Nc2cnc3ccccc3c2)cc1` is greater than 49.3 µg/mL; for `CCN1CCN(Cc2cc3c(cc2[N+](=O)[O-])OCO3)CC1` it is 41.1 µg/mL (≈ 140 µM); for `CC(=O)OCC(=O)Nc1ccccc1OC(F)F` it is greater than 38.9 µg/mL.
In turn, `Cc1ccccc1C(=O)OC1CCCN(C)C1.Cl` (stereo not drawn) registered a solubility (kinetic) of 39.9 µg/mL.
On to `Cc1sc2ncnc(NS(=O)(=O)c3ccc(Cl)cc3)c2c1C`, for which the kinetic solubility came out at 47.8 µg/mL (≈ 135 µM).

For the origin of these results see PubChem BioAssay AID1996.
